Here are results for 32 molecules from patent US20110257208A1, “COMPOUNDS USEFUL AS FAAH MODULATORS AND USES THEREOF” (priority 2008, published 2011).

In the test the target is T1, hFAAH (Homo sapiens, UniProt O00519).
T1 construct: expressed in transfected cells; host or cells: HEK293-TRex (Invitrogen) stably transfected with hFAAH in the pcDNA5-Tet-off vector, or T84 human colon epithelial cells (endogenous hFAAH); used as a microsomal preparation
T1 sequence (O00519 1-579): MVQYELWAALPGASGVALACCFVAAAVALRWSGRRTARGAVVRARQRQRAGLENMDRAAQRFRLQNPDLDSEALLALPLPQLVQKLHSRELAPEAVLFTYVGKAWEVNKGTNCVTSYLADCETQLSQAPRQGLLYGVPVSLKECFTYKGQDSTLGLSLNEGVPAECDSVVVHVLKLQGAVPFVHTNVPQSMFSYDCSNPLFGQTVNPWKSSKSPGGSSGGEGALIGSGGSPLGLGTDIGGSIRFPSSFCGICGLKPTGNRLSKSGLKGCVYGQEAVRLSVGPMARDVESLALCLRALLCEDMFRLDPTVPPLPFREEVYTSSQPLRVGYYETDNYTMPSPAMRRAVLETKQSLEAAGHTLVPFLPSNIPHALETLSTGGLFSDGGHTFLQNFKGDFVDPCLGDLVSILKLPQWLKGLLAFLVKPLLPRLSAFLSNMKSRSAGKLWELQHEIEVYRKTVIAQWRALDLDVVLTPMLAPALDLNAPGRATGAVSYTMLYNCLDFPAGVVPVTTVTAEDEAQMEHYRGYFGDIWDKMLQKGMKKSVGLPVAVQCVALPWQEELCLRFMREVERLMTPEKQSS
Description: Fluorimetric assay with hFAAH microsomes (enzymatic, fluorescence based). In kind it is biochemical. The settings on record: compound at 1 uM, AA-AMC substrate. An outline of the steps: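 Microsomes from T84 cells (endogenous hFAAH) or doxycycline-induced HEK293-TRex cells stably expressing hFAAH, 10 μg per well, in 50 mM HEPES pH 7.4, 1 mM EDTA, 1.4 mg/mL BSA with 2 μM AA-AMC. Kinetic fluorescence read (ex 355/em 460 nm, 275 cycles); activity as % inhibition, 7 concentrations in duplicate.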
Take `O=S(=O)(c1ccccc1OC(F)(F)F)N1Cc2ncnc(Nc3cnc4ccccc4c3)c2C1` [Compound 70, Quinolin-3-yl-[6-(2-trifluoromethoxy-benzenesulfonyl)-6,7-dihydro-5H-pyrrolo[3,4-d]pyrimidin-4-yl]-amine]: the inhibition at 1 µM was greater than 25%.

In the case of `O=S(=O)(c1ccccc1F)N1Cc2ncnc(Nc3cnc4ccccc4c3)c2C1` [Compound 71, [6-(2-Fluoro-benzenesulfonyl)-6,7-dihydro-5H-pyrrolo[3,4-d]pyrimidin-4-yl]-quinolin-3-yl-amine], the inhibition at 1 µM was greater than 25%.

In turn, `O=S(=O)(c1ccccc1Cl)N1Cc2ncnc(Nc3cnc4ccccc4c3)c2C1` [Compound 72, [6-(2-Chloro-benzenesulfonyl)-6,7-dihydro-5H-pyrrolo[3,4-d]pyrimidin-4-yl]-quinolin-3-yl-amine] had an inhibition at 1 µM greater than 50%.

With `COc1ccccc1S(=O)(=O)N1Cc2ncnc(Nc3cnc4ccccc4c3)c2C1` [Compound 73, [6-(2-Methoxy-benzenesulfonyl)-6,7-dihydro-5H-pyrrolo[3,4-d]pyrimidin-4-yl]-quinolin-3-yl-amine], the inhibition at 1 µM was greater than 25%.

Take `Cc1nc(C(F)(F)F)ccc1CN1Cc2ncnc(Nc3cnc4ccccc4c3)c2C1` [Compound 74, [6-(2-Methyl-6-trifluoromethyl-pyridin-3-ylmethyl)-6,7-dihydro-5H-pyrrolo[3,4-d]pyrimidin-4-yl]-quinolin-3-yl-amine]: the inhibition at 1 µM is greater than 25%.

As to `c1ccc2ncc(Nc3ncnc4c3CN(Cc3cscn3)C4)cc2c1` [Compound 75, Quinolin-3-yl-(6-thiazol-4-ylmethyl-6,7-dihydro-5H-pyrrolo[3,4-d]pyrimidin-4-yl)-amine], the inhibition at 1 µM is greater than 25%.

In the case of `c1ccc2ncc(Nc3ncnc4c3CN(Cc3nccs3)C4)cc2c1` [Compound 76, Quinolin-3-yl-(6-thiazol-2-ylmethyl-6,7-dihydro-5H-pyrrolo[3,4-d]pyrimidin-4-yl)-amine], the inhibition at 1 µM was greater than 25%.

Molecule `Cc1csc(CN2Cc3ncnc(Nc4cnc5ccccc5c4)c3C2)n1` [Compound 77, [6-(4-Methyl-thiazol-2-ylmethyl)-6,7-dihydro-5H-pyrrolo[3,4-d]pyrimidin-4-yl]-quinolin-3-yl-amine] had an inhibition at 1 µM greater than 50%.

On to `Cc1cnccc1CN1Cc2ncnc(Nc3cnc4ccccc4c3)c2C1` [Compound 78, [6-(3-Methyl-pyridin-4-ylmethyl)-6,7-dihydro-5H-pyrrolo[3,4-d]pyrimidin-4-yl]-quinolin-3-yl-amine], for which the inhibition at 1 µM is greater than 75%.

The molecule `Cc1cccnc1CN1Cc2ncnc(Nc3cnc4ccccc4c3)c2C1` [Compound 79, [6-(3-Methyl-pyridin-2-ylmethyl)-6,7-dihydro-5H-pyrrolo[3,4-d]pyrimidin-4-yl]-quinolin-3-yl-amine] registered an inhibition at 1 µM of less than 25%.

`Fc1ccccc1CN1Cc2ncnc(Nc3cnc4ccccc4c3)c2C1` [Compound 80, [6-(2-Fluoro-benzyl)-6,7-dihydro-5H-pyrrolo[3,4-d]pyrimidin-4-yl]-quinolin-3-yl-amine] yielded an inhibition at 1 µM greater than 75%.

`c1ccc2ncc(Nc3ncnc4c3CN(Cc3cncs3)C4)cc2c1` [Compound 81, Quinolin-3-yl-(6-thiazol-5-ylmethyl-6,7-dihydro-5H-pyrrolo[3,4-d]pyrimidin-4-yl)-amine] came in with an inhibition at 1 µM greater than 25%.

Molecule `O=S(=O)(CCc1ccccc1)N1Cc2ncnc(Nc3cnc4ccccc4c3)c2C1` [Compound 82, [6-(2-Phenyl-ethanesulfonyl)-6,7-dihydro-5H-pyrrolo[3,4-d]pyrimidin-4-yl]-quinolin-3-yl-amine] had an inhibition at 1 µM of less than 25%.

On to `COc1ccccc1CN1Cc2ncnc(Nc3cnc4ccccc4c3)c2C1` [Compound 83, [6-(2-Methoxy-benzyl)-6,7-dihydro-5H-pyrrolo[3,4-d]pyrimidin-4-yl]-quinolin-3-yl-amine], for which the inhibition at 1 µM is greater than 75%.

In turn, `Clc1ccccc1CN1Cc2ncnc(Nc3cnc4ccccc4c3)c2C1` [Compound 84, [6-(2-Chloro-benzyl)-6,7-dihydro-5H-pyrrolo[3,4-d]pyrimidin-4-yl]-quinolin-3-yl-amine] had an inhibition at 1 µM greater than 75%.

Regarding `c1ccc2ncc(Nc3ncnc4c3CN(Cc3ccnc5ccccc35)C4)cc2c1` [Compound 85, Quinolin-3-yl-(6-quinolin-4-ylmethyl-6,7-dihydro-5H-pyrrolo[3,4-d]pyrimidin-4-yl)-amine], the inhibition at 1 µM was greater than 50%.

`Cc1ccoc1CN1Cc2ncnc(Nc3cnc4ccccc4c3)c2C1` [Compound 86, [6-(3-Methyl-furan-2-ylmethyl)-6,7-dihydro-5H-pyrrolo[3,4-d]pyrimidin-4-yl]-quinolin-3-yl-amine] yielded an inhibition at 1 µM greater than 75%.

The molecule `Cc1cccc(CN2Cc3ncnc(Nc4cnc5ccccc5c4)c3C2)c1C` [Compound 87, [6-(2,3-Dimethyl-benzyl)-6,7-dihydro-5H-pyrrolo[3,4-d]pyrimidin-4-yl]-quinolin-3-yl-amine] gave an inhibition at 1 µM greater than 75%.

Turning to `Cc1cccc(C)c1CN1Cc2ncnc(Nc3cnc4ccccc4c3)c2C1` [Compound 88, [6-(2,6-Dimethyl-benzyl)-6,7-dihydro-5H-pyrrolo[3,4-d]pyrimidin-4-yl]-quinolin-3-yl-amine], the inhibition at 1 µM was greater than 50%.

The molecule `Cc1ccc(C)c(CN2Cc3ncnc(Nc4cnc5ccccc5c4)c3C2)c1` [Compound 89, [6-(2,5-Dimethyl-benzyl)-6,7-dihydro-5H-pyrrolo[3,4-d]pyrimidin-4-yl]-quinolin-3-yl-amine] showed an inhibition at 1 µM greater than 75%.

In turn, `CCc1ccccc1CN1Cc2ncnc(Nc3cnc4ccccc4c3)c2C1` [Compound 90, [6-(2-Ethyl-benzyl)-6,7-dihydro-5H-pyrrolo[3,4-d]pyrimidin-4-yl]-quinolin-3-yl-amine] displayed an inhibition at 1 µM greater than 75%.

As for `Clc1ncc(CN2Cc3ncnc(Nc4cnc5ccccc5c4)c3C2)s1` [Compound 91, [6-(2-Chloro-thiazol-5-ylmethyl)-6,7-dihydro-5H-pyrrolo[3,4-d]pyrimidin-4-yl]-quinolin-3-yl-amine], the inhibition at 1 µM is greater than 50%.

For the molecule `Cc1ccccc1CN1Cc2ncnc(Nc3cnc4ccccc4c3)c2C1` [Compound 92, [6-(2-Methyl-benzyl)-6,7-dihydro-5H-pyrrolo[3,4-d]pyrimidin-4-yl]-quinolin-3-yl-amine], the inhibition at 1 µM was greater than 75%.

On to `Cc1ccc(CN2Cc3ncnc(Nc4cnc5ccccc5c4)c3C2)c(C)c1` [Compound 93, [6-(2,4-Dimethyl-benzyl)-6,7-dihydro-5H-pyrrolo[3,4-d]pyrimidin-4-yl]-quinolin-3-yl-amine], for which the inhibition at 1 µM was greater than 25%.

For `c1ccc2ncc(Nc3ncnc4c3CN(Cc3ccncc3)C4)cc2c1` [Compound 94, (6-Pyridin-4-ylmethyl-6,7-dihydro-5H-pyrrolo[3,4-d]pyrimidin-4-yl)-quinolin-3-yl-amine], the inhibition at 1 µM was greater than 75%.

The molecule `FC(F)(F)c1ccccc1CN1Cc2ncnc(Nc3cnc4ccccc4c3)c2C1` [Compound 95, Quinolin-3-yl-[6-(2-trifluoromethyl-benzyl)-6,7-dihydro-5H-pyrrolo[3,4-d]pyrimidin-4-yl]-amine] gave an inhibition at 1 µM greater than 75%.

`Cc1occc1CN1Cc2ncnc(Nc3cnc4ccccc4c3)c2C1` [Compound 96, [6-(2-Methyl-furan-3-ylmethyl)-6,7-dihydro-5H-pyrrolo[3,4-d]pyrimidin-4-yl]-quinolin-3-yl-amine] yielded an inhibition at 1 µM greater than 50%.

For `CCc1nc(C)c(CN2Cc3ncnc(Nc4cnc5ccccc5c4)c3C2)s1` [Compound 97, [6-(2-Ethyl-4-methyl-thiazol-5-ylmethyl)-6,7-dihydro-5H-pyrrolo[3,4-d]pyrimidin-4-yl]-quinolin-3-yl-amine], the inhibition at 1 µM was greater than 75%.

For the molecule `FC(F)(F)Oc1ccccc1CN1Cc2ncnc(Nc3cnc4ccccc4c3)c2C1` [Compound 98, Quinolin-3-yl-[6-(2-trifluoromethoxy-benzyl)-6,7-dihydro-5H-pyrrolo[3,4-d]pyrimidin-4-yl]-amine], the inhibition at 1 µM was greater than 75%.

Regarding `FC(F)(F)c1cccc(CN2Cc3ncnc(Nc4cnc5ccccc5c4)c3C2)c1` [Compound 99, Quinolin-3-yl-[6-(3-trifluoromethyl-benzyl)-6,7-dihydro-5H-pyrrolo[3,4-d]pyrimidin-4-yl]-amine], the inhibition at 1 µM is greater than 75%.

For the molecule `CCOc1ccccc1CN1Cc2ncnc(Nc3cnc4ccccc4c3)c2C1` [Compound 100, [6-(2-Ethoxy-benzyl)-6,7-dihydro-5H-pyrrolo[3,4-d]pyrimidin-4-yl]-quinolin-3-yl-amine], the inhibition at 1 µM is greater than 75%.

`c1cc2c(c(CN3Cc4ncnc(Nc5cnc6ccccc6c5)c4C3)c1)OCC2` [Compound 101, [6-(2,3-Dihydro-benzofuran-7-ylmethyl)-6,7-dihydro-5H-pyrrolo[3,4-d]pyrimidin-4-yl]-quinolin-3-yl-amine] yielded an inhibition at 1 µM greater than 75%.

As a reminder, the inhibition is how much of the control response was suppressed. Lower therefore signals little suppression.
